Test: Agilent InfinityLab Poroshell 120 SB-C18, 100 × 2.1 mm, 2.7 µm, 40 °C, 0.2 mL/min, estimated dead time 1.1 min; A: water + 0.1% formic acid; B: acetonitrile; gradient (min/%B) 0/2 15/95 16/95
Conditions: stereoisomer not certain

| LC retention time | SMILES |
| --- | --- |
| 6.01 min | CC(C)CC(N)C(=O)O (stereo unspecified) |
| 1.34 min | O=C(CO)C(O)C(O)C(O)COP(=O)(O)O (stereo unspecified) |
| 3.78 min | CC(O)(CC(=O)O)CC(=O)SCCNC(=O)CCNC(=O)C(O)C(C)(C)COP(=O)(O)OP(=O)(O)OCC1OC(n2cnc3c(N)ncnc32)C(O)C1OP(=O)(O)O (stereo unspecified) |
| 2.51 min | CC(=O)C(=O)O |
| 8.13 min | CC=CC(=O)O |
| 4.62 min | Nc1ncnc2c1ncn2C1OC(CO)C(O)C1O (stereo unspecified) |
| 12 min | OCC1OC(O)C(O)C(O)C1O (stereo unspecified) |
| 4.1 min | OCC1OC(OC2(CO)OC(CO)C(O)C2O)C(O)C(O)C1O (stereo unspecified) |
| 2.87 min | NC(CCC(=O)NC(CSSCC(NC(=O)CCC(N)C(=O)O)C(=O)NCC(=O)O)C(=O)NCC(=O)O)C(=O)O (stereo unspecified) |
| 11.7 min | CC(=O)SCCNC(=O)CCNC(=O)C(O)C(C)(C)COP(=O)(O)OP(=O)(O)OCC1OC(n2cnc3c(N)ncnc32)C(O)C1OP(=O)(O)O (stereo unspecified) |
| 4.1 min | Nc1ccn(C2CC(O)C(CO)O2)c(=O)n1 (stereo unspecified) |
| 6.12 min | CCCCCCCCCC(O)CC(=O)O (stereo unspecified) |
| 1.34 min | NC(CC(=O)O)C(=O)O (stereo unspecified) |
| 14.7 min | Cc1cn(C2CC(O)C(CO)O2)c(=O)[nH]c1=O (stereo unspecified) |
| 10.1 min | O=c1ccn(C2OC(COP(=O)(O)OP(=O)(O)OP(=O)(O)O)C(O)C2O)c(=O)[nH]1 (stereo unspecified) |
| 15.1 min | CCCCCCCCCCCCCC=CC(O)C(N)CO (stereo unspecified) |
| 12.7 min | CCCCCCCCCC=CC(=O)O |
| 14.7 min | CC(CCCC(CO)COS(=O)(=O)O)C1CCC2C3C(O)CC4CC(O)CCC4(C)C3CC(O)C12C (stereo unspecified) |
| 1.62 min | NC1C(O)OC(CO)C(O)C1O (stereo unspecified) |
| 1.37 min | CC(=O)NC1C(O)OC(COP(=O)(O)O)C(O)C1O (stereo unspecified) |
| 3.76 min | OCC(O)CO |
| 1.62 min | O=C(O)C(=O)Cc1ccccc1 |
| 8.32 min | O=C(O)c1cc(=O)[nH]c(=O)n1C1OC(COP(=O)(O)O)C(O)C1O (stereo unspecified) |
| 13.3 min | CCCCCC(O)C=CC1C(O)CC(=O)C1CC=CCCCC(=O)O (stereo unspecified) |
| 1.48 min | CC(O)C=O (stereo unspecified) |
| 5.47 min | CC(=O)NC1C(OP(=O)(O)OP(=O)(O)OCC2OC(n3ccc(=O)[nH]c3=O)C(O)C2O)OC(CO)C(O)C1O (stereo unspecified) |
| 2.36 min | CCCCCCCCCCCCCC=CC(O)C(COC1OC(CO)C(OC2OC(CO)C(O)C(O)C2O)C(O)C1O)NC(=O)CCCCCCCCCCCCCCCCCCCCC (stereo unspecified) |

| LC retention time | SMILES |
| --- | --- |
| 1.62 min | C=C(CC)C(=O)O |
| 1.37 min | COc1cc(C(O)C(=O)O)ccc1O (stereo unspecified) |
| 1.45 min | NCCCCNCCCN |
| 2.87 min | NCC(=O)O |
| 2.1 min | NC(CCC(=O)NC(CS)C(=O)NCC(=O)O)C(=O)O (stereo unspecified) |
| 2.87 min | Nc1ncnc2c1ncn2C1OC(COP(=O)(O)OP(=O)(O)O)C(O)C1O (stereo unspecified) |
| 4.45 min | O=C(O)CC(O)C(=O)O (stereo unspecified) |
| 2.94 min | CC(=O)NC1C(O)OC(CO)C(O)C1O (stereo unspecified) |
| 2.51 min | O=c1[nH]cnc2nc[nH]c12 |
| 3.37 min | CC(O)C(=O)O (stereo unspecified) |
| 2.46 min | NC(=O)c1cccnc1 |
| 8.58 min | NC(=O)C1=CN(C2OC(COP(=O)(O)OP(=O)(O)OCC3OC(n4cnc5c(N)ncnc54)C(OP(=O)(O)O)C3O)C(O)C2O)C=CC1 (stereo unspecified) |
| 4.62 min | Nc1ccn(C2CC(O)C(COP(=O)(O)OP(=O)(O)OP(=O)(O)O)O2)c(=O)n1 (stereo unspecified) |
| 12.4 min | CCCC(O)CC(=O)O (stereo unspecified) |
| 2.94 min | CCC(C)C(N)C(=O)O (stereo unspecified) |
| 15.6 min | CCCCCCCCCCCCCCCC(=O)OC(CC(=O)[O-])C[N+](C)(C)C (stereo unspecified) |
| 1.37 min | O=P(O)(O)OCC1OC(O)C(O)C(O)C1O (stereo unspecified) |
| 8.32 min | NC(=O)c1ncn(C2OC(COP(=O)(O)O)C(O)C2O)c1N (stereo unspecified) |
| 1.62 min | CC(C)CCC=O |
| 11.7 min | Nc1nc2c(ncn2C2CC(O)C(COP(=O)(O)OP(=O)(O)O)O2)c(=O)[nH]1 (stereo unspecified) |
| 6.53 min | O=C(O)CCC(=O)O |
| 13.5 min | NCC(=O)NC1OC(COP(=O)(O)O)C(O)C1O (stereo unspecified) |
| 13 min | O=c1ccn(C2OC(COP(=O)(O)OP(=O)(O)O)C(O)C2O)c(=O)[nH]1 (stereo unspecified) |
| 8.91 min | CCCCCC=CCC=CC=CC=CC(SCC(N)C(=O)NCC(=O)O)C(O)CCCC(=O)O (stereo unspecified) |
| 1.41 min | O=C(O)C1CCCN1 (stereo unspecified) |
| 5.19 min | Nc1nc2c(ncn2C2CC(O)C(CO)O2)c(=O)[nH]1 (stereo unspecified) |
| 2.51 min | O=C(O)C1CC(O)C=N1 (stereo unspecified) |

| SMILES | LC retention time |
| --- | --- |
| NC(=O)c1ncn(C2OC(COP(=O)(O)O)C(O)C2O)c1NC=O (stereo unspecified) | 1.34 min |
| CC12CCC3C(CCC4=CC(=O)CCC43CO)C1CCC2=O (stereo unspecified) | 6.37 min |
